The results in this text go back to patent US20260201008A1, “SECRETIN-DERIVED GLP1R SELECTIVE AGONISTS” (GUBRA A/S, priority 2023, published 2026).

Numbered stars: 1 amine (or outer) side, 2 acyl side, 3 side chain; on linkers, the order of the positions; unused ones are H or OH. Square brackets hold non-standard residues; d marks the D form. Side chains are listed from the residue outwards. Ends that are not written are not given here. Peptide text beside a SMILES is read from it. * marks the point of attachment. C20 diacid = O=C(O)CCCCCCCCCCCCCCCCCCC(=O)*; γGlu = O=C(O)[C@H](CCC(=O)[*:2])N[*:1]; AEEA = NCCOCCOCC(=O)O; Aib = CC(C)(N)C(=O)O

Data set [1] is described as follows: Turbidity of crude library peptides (absorbance at 600 nm). The following applies: Physical stability of peptides. Type of data set: physicochemical. How it is done: (§1) Peptides were dissolved in buffers (50 mM sodium acetate at pH 4.0, or 50 mM sodium phosphate at pH 7.0) to 267 μM and incubated for 1-2 hours at room temperature. The samples were then divided into two replicates of 80 μl in a black 384 well plate (μ-clear, Greiner Bio-One) and mixed with Thioflavin T (ThT) to a final concentration of 4 μM. The plate was centrifuged for 2 min at 2000 rpm to remove air bubbles, sealed, and placed in a plate reader (CLARIOstar, BMG). Firstly, turbidity of the samples was measured as the absorbance at 600 nm. Secondly, the plate reader temperature was set to 40° C. and the fluorescence was measured every 10 min for 72 hours by exciting the ThT at 450 nm and measuring the emission at 480 nm. Samples were stressed by shaking the plate at 700 rpm (linear) for five minutes before every measurement, and fibril formation was determined as the average emission for each sample.

Data set [2] can be described thus: Fibril formation of crude library peptides (Thioflavin T). Type of data set: physicochemical. More on the design: key: average ThT fluorescence emission at 480 nm (ex 450 nm), raw units. The following applies: Physical stability of peptides. How it is done: as §1
A further data set concerns the target SCTR (Homo sapiens, UniProt P47872). As to the kind of experiment: hSCTR potency, cAMP accumulation in CHO-K1 cells stably overexpressing hSCTR. The following applies: cAMP accumulation, CHO-K1 cells overexpressing hSCTR; read-out: pEC50 hSCTR (converted). The arrangement: alternatively Euroscreen ES-712-AF; FAST-0161L; host or cells: CHO-K1. Type of data set: cell-based. The source says:
(§2) Crude library peptides are screened in 10-fold serial dilutions of 5 concentrations, n=1 time. Tip change is done for the first two serial dilutions. Compound starting concentration (top) will be adjusted throughout the study if needed.
(§3) Purified peptides are screened in 3-fold serial dilutions of 11 concentrations, n=2 times. Tip change is done for all serial dilutions. Compound starting concentration (top) will be adjusted throughout the study. If the top concentration is adjusted or a 5-fold difference in calculated EC50 values is observed, n is increased by 1. EC50 values were calculated by nonlinear regression using sigmoid concentration-response with variable slope.
(§4) Frozen division arrested CHO-K1 cells stably overexpressing the hSCTR were obtained from PerkinElmer (ES-712-AF). Alternatively, a CHO-K1 cell line stably overexpressing the hSCTR was obtained from Euroscreen (FAST-0161L), expanded, aliquoted and frozen. An aliquot was thawed and plated in DPBS with 0.05% casein and 0.5 mM IBMX as 2000 cells/well in a 384-well format. The cells were then immediately stimulated for 30 min at room temperature with graded doses of test compound using human secretin (synthesized at Gubra) as a positive control. cAMP accumulation was measured using a Cisbio assay for Gs coupled receptors (cat. no. 62AM4PEC), where the assay reagents were added as per the manufacturer's instructions and time-resolved fluorescence energy transfer recorded after one hour on a CLARIOstar (BMG Labtech) plate reader.
Background: Cyclic AMP is a second messenger, typically raised through Gs and lowered through Gi signalling.

The target of the next data set is GLP1R (Homo sapiens, UniProt P43220). As to the kind of experiment: hGLP1R potency, cAMP accumulation in CHO-K1 cells stably overexpressing hGLP1R. More on the design: host or cells: CHO-K1. The format is cell-based. The settings on record: for Selectivity: SCTR EC50/GLP1R EC50 ratio; for EC50: cAMP accumulation, CHO-K1 cells overexpressing hGLP1R, read-out: pEC50 hGLPR1 (converted).
From the text: as §2, §3
as §4, with “A” for “Frozen division arrested CHO-K1 cells stably overexpressing the hSCTR were obtained from PerkinElmer (ES-712-AF). Alternatively, a”, “hGLP1R” for “hSCTR”, “(FAST-0145L),” for “(FAST-0161L),”, “GLP-1(7-36)” for “secretin”

For data set [3], the target named is human secretin receptor (hSCTR) (human, UniProt P47872 23-440). The experiment in a line: cell-based or functional assay.
Chain of human secretin receptor (hSCTR) (P47872 23-440): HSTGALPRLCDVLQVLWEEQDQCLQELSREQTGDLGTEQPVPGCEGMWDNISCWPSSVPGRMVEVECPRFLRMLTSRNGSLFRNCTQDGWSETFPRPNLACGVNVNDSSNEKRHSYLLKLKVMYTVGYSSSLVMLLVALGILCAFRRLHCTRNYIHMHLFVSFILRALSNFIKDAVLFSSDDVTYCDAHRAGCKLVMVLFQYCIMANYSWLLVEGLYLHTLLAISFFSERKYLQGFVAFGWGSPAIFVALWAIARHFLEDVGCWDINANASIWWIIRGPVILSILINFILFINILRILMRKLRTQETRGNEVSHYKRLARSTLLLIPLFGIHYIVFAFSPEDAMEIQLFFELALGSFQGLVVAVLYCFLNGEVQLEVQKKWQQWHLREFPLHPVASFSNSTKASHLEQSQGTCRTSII

Chain of GLP1R (P43220 24-463): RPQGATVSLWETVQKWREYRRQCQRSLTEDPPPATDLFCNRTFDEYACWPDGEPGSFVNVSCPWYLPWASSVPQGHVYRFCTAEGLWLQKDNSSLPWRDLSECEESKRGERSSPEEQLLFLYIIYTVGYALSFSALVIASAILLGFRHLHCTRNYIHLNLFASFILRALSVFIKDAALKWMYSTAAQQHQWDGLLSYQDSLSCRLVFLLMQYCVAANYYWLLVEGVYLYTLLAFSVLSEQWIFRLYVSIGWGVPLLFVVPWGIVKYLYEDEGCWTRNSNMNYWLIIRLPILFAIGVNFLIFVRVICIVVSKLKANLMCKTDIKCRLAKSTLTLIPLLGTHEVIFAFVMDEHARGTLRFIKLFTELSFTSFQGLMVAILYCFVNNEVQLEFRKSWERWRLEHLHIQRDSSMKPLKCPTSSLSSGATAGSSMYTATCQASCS
Chain of SCTR (P47872 23-440): as the sequence (P47872 23-440) above

Turning to “216 (GUB06-046) (H[Aib]EGTFTSDLSRLLEGAALQRFIQWLV-NH2; N-terminus assumed; SMILES CC[C@H](C)[C@H](NC(=O)[C@H](Cc1ccccc1)NC(=O)[C@H](CCCNC(=N)N)NC(=O)[C@H](CCC(N)=O)NC(=O)[C@H](CC(C)C)NC(=O)[C@H](C)NC(=O)[C@H](C)NC(=O)CNC(=O)[C@H](CCC(=O)O)NC(=O)[C@H](CC(C)C)NC(=O)[C@H](CC(C)C)NC(=O)[C@H](CCCNC(=N)N)NC(=O)[C@H](CO)NC(=O)[C@H](CC(C)C)NC(=O)[C@H](CC(=O)O)NC(=O)[C@H](CO)NC(=O)[C@@H](NC(=O)[C@H](Cc1ccccc1)NC(=O)[C@@H](NC(=O)CNC(=O)[C@H](CCC(=O)O)NC(=O)C(C)(C)NC(=O)[C@@H](N)Cc1c[nH]cn1)[C@@H](C)O)[C@@H](C)O)C(=O)N[C@@H](CCC(N)=O)C(=O)N[C@@H](Cc1c[nH]c2ccccc12)C(=O)N[C@@H](CC(C)C)C(=O)N[C@H](C(N)=O)C(C)C)”, in data set [1], the “Turbidity (pH 7)” value is 0.48. The molecule further yielded a Fibril formation in data set [2] of 11040.
On to `CC(C)C[C@H](NC(=O)[C@H](Cc1ccccc1)NC(=O)[C@H](CCCNC(=N)N)NC(=O)[C@H](CCC(N)=O)NC(=O)C(C)(C)NC(=O)[C@H](C)NC(=O)[C@H](C)NC(=O)[C@H](CCC(=O)O)NC(=O)[C@H](CCC(=O)O)NC(=O)[C@H](CCCCNC(=O)COCCOCCNC(=O)COCCOCCNC(=O)CC[C@H](NC(=O)CCCCCCCCCCCCCCCCCCC(=O)O)C(=O)O)NC(=O)[C@H](CC(C)C)NC(=O)[C@H](CCCNC(=N)N)NC(=O)[C@H](CO)NC(=O)[C@@H](NC(=O)[C@H](CC(=O)O)NC(=O)[C@H](CO)NC(=O)[C@@H](NC(=O)[C@H](Cc1ccccc1)NC(=O)[C@@H](NC(=O)CNC(=O)[C@H](CCC(=O)O)NC(=O)C(C)(C)NC(=O)[C@@H](N)Cc1c[nH]cn1)[C@@H](C)O)[C@@H](C)O)C(C)C)C(=O)N[C@@H](CCC(=O)O)C(=O)N[C@@H](Cc1c[nH]cn1)C(=O)N[C@@H](CC(C)C)C(=O)N[C@H](C(N)=O)C(C)C` [compound 1] (H-H[Aib]EGTFTSDVSRLK([AEEA-AEEA-γGlu-C20 diacid])EEAA[Aib]QRFLEHLV-NH2), for which the “Turbidity (pH 7)” value in data set [1] turned out to be 0.08. For the same molecule, the figures for the EC50 at SCTR and on GLP1R were 158 nM and 0.0398 nM, respectively. The Fibril formation in data set [2] is recorded as 11494. The Selectivity on GLP1R is listed as 4325.
For `CC(C)C[C@H](NC(=O)[C@H](Cc1ccccc1)NC(=O)[C@H](CCCNC(=N)N)NC(=O)[C@H](CCC(N)=O)NC(=O)[C@H](C)NC(=O)[C@H](C)NC(=O)[C@H](C)NC(=O)[C@H](Cc1ccccc1)NC(=O)[C@H](CCC(=O)O)NC(=O)[C@H](CCCCNC(=O)COCCOCCNC(=O)COCCOCCNC(=O)CC[C@H](NC(=O)CCCCCCCCCCCCCCCCCCC(=O)O)C(=O)O)NC(=O)[C@H](CC(C)C)NC(=O)[C@H](CCCNC(=N)N)NC(=O)[C@H](CO)NC(=O)[C@@H](NC(=O)[C@H](CC(=O)O)NC(=O)[C@H](CO)NC(=O)[C@@H](NC(=O)[C@H](Cc1ccccc1)NC(=O)[C@@H](NC(=O)CNC(=O)[C@H](CCC(=O)O)NC(=O)C(C)(C)NC(=O)[C@@H](N)Cc1c[nH]cn1)[C@@H](C)O)[C@@H](C)O)C(C)C)C(=O)N[C@@H](CCC(=O)O)C(=O)N[C@@H](Cc1c[nH]cn1)C(=O)N[C@@H](CC(C)C)C(=O)N[C@H](C(N)=O)C(C)C` [compound 2] (H-H[Aib]EGTFTSDVSRLK([AEEA-AEEA-γGlu-C20 diacid])EFAAAQRFLEHLV-NH2), in that order: 0.08, 501 nM, 0.0794 nM, 89647 and 6431.
As for `CC(C)C[C@H](NC(=O)[C@H](Cc1ccccc1)NC(=O)[C@H](CCCNC(=N)N)NC(=O)[C@H](CCC(N)=O)NC(=O)[C@H](CC(C)C)NC(=O)C(C)(C)NC(=O)[C@H](C)NC(=O)[C@H](CCC(=O)O)NC(=O)[C@H](CCC(=O)O)NC(=O)[C@H](CCCCNC(=O)COCCOCCNC(=O)COCCOCCNC(=O)CC[C@H](NC(=O)CCCCCCCCCCCCCCCCCCC(=O)O)C(=O)O)NC(=O)[C@H](CC(C)C)NC(=O)[C@H](Cc1ccc(O)cc1)NC(=O)[C@H](CO)NC(=O)[C@@H](NC(=O)[C@H](CC(=O)O)NC(=O)[C@H](CO)NC(=O)[C@@H](NC(=O)[C@H](Cc1ccccc1)NC(=O)[C@@H](NC(=O)CNC(=O)[C@H](CCC(N)=O)NC(=O)C(C)(C)NC(=O)[C@@H](N)Cc1c[nH]cn1)[C@@H](C)O)[C@@H](C)O)C(C)C)C(=O)N[C@@H](CCC(=O)O)C(=O)N[C@@H](Cc1c[nH]cn1)C(=O)N[C@@H](CC(C)C)C(=O)N[C@H](C(N)=O)C(C)C` [compound 156] (H-H[Aib]QGTFTSDVSYLK([AEEA-AEEA-γGlu-C20 diacid])EEA[Aib]LQRFLEHLV-NH2), in data set [1], the “Turbidity (pH 7)” value was found to be 0.08. In data set [2], this molecule showed a Fibril formation of 3949. The “SCTR EC50/GLP1R EC50 ratio” value at GLP1R (selectivity for hGLP1R over hSCTR, cAMP accumulation in CHO-K1 cells) was 2941711.

B1: SEQ ID NO: 186 (peptide)
peptide: H[Aib]EGTFTSDWSRLLEGAALQRFIQWLV-NH2
modifications: N-terminus assumed
SMILES: CC[C@H](C)[C@H](NC(=O)[C@H](Cc1ccccc1)NC(=O)[C@H](CCCNC(=N)N)NC(=O)[C@H](CCC(N)=O)NC(=O)[C@H](CC(C)C)NC(=O)[C@H](C)NC(=O)[C@H](C)NC(=O)CNC(=O)[C@H](CCC(=O)O)NC(=O)[C@H](CC(C)C)NC(=O)[C@H](CC(C)C)NC(=O)[C@H](CCCNC(=N)N)NC(=O)[C@H](CO)NC(=O)[C@H](Cc1c[nH]c2ccccc12)NC(=O)[C@H](CC(=O)O)NC(=O)[C@H](CO)NC(=O)[C@@H](NC(=O)[C@H](Cc1ccccc1)NC(=O)[C@@H](NC(=O)CNC(=O)[C@H](CCC(=O)O)NC(=O)C(C)(C)NC(=O)[C@@H](N)Cc1c[nH]cn1)[C@@H](C)O)[C@@H](C)O)C(=O)N[C@@H](CCC(N)=O)C(=O)N[C@@H](Cc1c[nH]c2ccccc12)C(=O)N[C@@H](CC(C)C)C(=O)N[C@H](C(N)=O)C(C)C
For the molecule B1, the “pEC50 hSCTR” value in data set [3] was 8.2 -log M.

B2: SEQ ID NO: 194 (peptide)
peptide: H[Aib]EGTFTSDYSRLLEGAALQRFIQWLV-NH2
modifications: N-terminus assumed
SMILES: CC[C@H](C)[C@H](NC(=O)[C@H](Cc1ccccc1)NC(=O)[C@H](CCCNC(=N)N)NC(=O)[C@H](CCC(N)=O)NC(=O)[C@H](CC(C)C)NC(=O)[C@H](C)NC(=O)[C@H](C)NC(=O)CNC(=O)[C@H](CCC(=O)O)NC(=O)[C@H](CC(C)C)NC(=O)[C@H](CC(C)C)NC(=O)[C@H](CCCNC(=N)N)NC(=O)[C@H](CO)NC(=O)[C@H](Cc1ccc(O)cc1)NC(=O)[C@H](CC(=O)O)NC(=O)[C@H](CO)NC(=O)[C@@H](NC(=O)[C@H](Cc1ccccc1)NC(=O)[C@@H](NC(=O)CNC(=O)[C@H](CCC(=O)O)NC(=O)C(C)(C)NC(=O)[C@@H](N)Cc1c[nH]cn1)[C@@H](C)O)[C@@H](C)O)C(=O)N[C@@H](CCC(N)=O)C(=O)N[C@@H](Cc1c[nH]c2ccccc12)C(=O)N[C@@H](CC(C)C)C(=O)N[C@H](C(N)=O)C(C)C
Take B2: the “pEC50 hSCTR” value in data set [3] is 8.8 -log M.
